The structures appear in SMILES notation.

One experiment has as its target T1, Intestinal Sucrase (Rattus norvegicus, UniProt P23739).
T1 construct: Sucrase was isolated from rat intestine as a crude homogenate; from tissue; host or cells: rat intestine
Description: Intestinal sucrase inhibition (glucose liberated from sucrose). Conditions: crude homogenate from rat intestine; 1 hour preincubation with test compound; sucrose substrate, pH 5.9; read-out: IC₅₀ Intestinal Sucrase. In kind it is biochemical. As to the method:
Sucrase was isolated from rat intestine as a crude homogenate using the salt extraction procedure of Kolinska [Biochem. Biophys. Acta, 284, 235 (1984)]. Incubation mixtures contained 100 µl of enzyme preparation plus test compound and were incubated for 1 hour before the addition of 6.6 µmole sucrose in 100 µl 0.1 M sodium maleate, pH 5.9. The mixtures were incubated an additional 30 minutes and then heat inactivated at 80-100°C for 3 minutes. Denatured protein was removed by centrifugation. Glucose liberated was determined by glucose dehydrogenase reagents (Seragen Diagnostics).

Another experiment concerns the target T2, Lysosomal α-Glucosidase (Rattus norvegicus, UniProt Q6P7A9).
T2 construct: Lysosomal α-glucosidase was isolated and partially purified from rat liver; from tissue; host or cells: rat liver
Kind of experiment: Lysosomal α-glucosidase inhibition (p-nitrophenyl-α-D-glucoside hydrolysis). It is filed as biochemical. Conditions: partially purified from rat liver, 1 hour preincubation at 37°C, pH 4.2, read-out: IC₅₀ Lysosomal α-Glucosidase. The method, then:
Lysosomal α-glucosidase was isolated and partially purified from rat liver by the method of Dissous [Anal. Biochem., 116, 35 (1981)] through the ammonium sulfate fractionation steps. Enzyme was incubated with test compound for 1 hour at 37°C prior to the addition of p-nitrophenyl-α-D-glucoside in a final volume of 0.6 ml of 0.1 M sodium acetate, 25 mM potassium chloride, pH 4.2. Mixtures were incubated for an additional 30 minutes at 37°C and then heat inactivated at 90°C. Denatured protein was removed by centrifugation. One ml of 0.1 M sodium carbonate was added to the supernatant fraction and liberated nitrophenol determined by its absorption at 410 nm.

The subject of a further experiment is serum glucose elevation. Kind of experiment: Sucrose load test: inhibition of serum glucose elevation. To be noted: for minimal effective dose: Mus musculus, 0.5 h, oral, test compound plus sucrose at 2.0 g/kg, serum glucose at 30 minutes post sucrose, amount needed to significantly inhibit serum glucose elevation; for Duration Of Action: oral test compound 1, 2 or 3 hours before sucrose at 2.0 g/kg, serum glucose 30 minutes post sucrose. In kind it is in vivo, ICR Swiss mice. The method, then: The compounds of the present invention were further tested in a sucrose load test to determine their ability to inhibit serum glucose elevation. The procedure can be summarized as follows.
ICR Swiss mice, fasted for 18-20 hours, were orally dosed with test compound plus sucrose at 2.0 g/kg. At 30 minutes post sucrose, the animals were sacrificed and their serum glucose concentrations were determined. […] To test duration of action, mice were orally dosed twice. The initial dose was test compound or vehicle. After 1, 2, or 3 hours, the mice were dosed with sucrose at 2.0 g/kg. After an additional 30 minutes post sucrose, the animals were sacrificed and their serum glucose concentrations were determined. Test compound activity was indicated by a significant difference of serum glucose concentration from the corresponding control. The activity observed can be summarized as follows: TABLE II

T1 sequence (P23739 whole entry): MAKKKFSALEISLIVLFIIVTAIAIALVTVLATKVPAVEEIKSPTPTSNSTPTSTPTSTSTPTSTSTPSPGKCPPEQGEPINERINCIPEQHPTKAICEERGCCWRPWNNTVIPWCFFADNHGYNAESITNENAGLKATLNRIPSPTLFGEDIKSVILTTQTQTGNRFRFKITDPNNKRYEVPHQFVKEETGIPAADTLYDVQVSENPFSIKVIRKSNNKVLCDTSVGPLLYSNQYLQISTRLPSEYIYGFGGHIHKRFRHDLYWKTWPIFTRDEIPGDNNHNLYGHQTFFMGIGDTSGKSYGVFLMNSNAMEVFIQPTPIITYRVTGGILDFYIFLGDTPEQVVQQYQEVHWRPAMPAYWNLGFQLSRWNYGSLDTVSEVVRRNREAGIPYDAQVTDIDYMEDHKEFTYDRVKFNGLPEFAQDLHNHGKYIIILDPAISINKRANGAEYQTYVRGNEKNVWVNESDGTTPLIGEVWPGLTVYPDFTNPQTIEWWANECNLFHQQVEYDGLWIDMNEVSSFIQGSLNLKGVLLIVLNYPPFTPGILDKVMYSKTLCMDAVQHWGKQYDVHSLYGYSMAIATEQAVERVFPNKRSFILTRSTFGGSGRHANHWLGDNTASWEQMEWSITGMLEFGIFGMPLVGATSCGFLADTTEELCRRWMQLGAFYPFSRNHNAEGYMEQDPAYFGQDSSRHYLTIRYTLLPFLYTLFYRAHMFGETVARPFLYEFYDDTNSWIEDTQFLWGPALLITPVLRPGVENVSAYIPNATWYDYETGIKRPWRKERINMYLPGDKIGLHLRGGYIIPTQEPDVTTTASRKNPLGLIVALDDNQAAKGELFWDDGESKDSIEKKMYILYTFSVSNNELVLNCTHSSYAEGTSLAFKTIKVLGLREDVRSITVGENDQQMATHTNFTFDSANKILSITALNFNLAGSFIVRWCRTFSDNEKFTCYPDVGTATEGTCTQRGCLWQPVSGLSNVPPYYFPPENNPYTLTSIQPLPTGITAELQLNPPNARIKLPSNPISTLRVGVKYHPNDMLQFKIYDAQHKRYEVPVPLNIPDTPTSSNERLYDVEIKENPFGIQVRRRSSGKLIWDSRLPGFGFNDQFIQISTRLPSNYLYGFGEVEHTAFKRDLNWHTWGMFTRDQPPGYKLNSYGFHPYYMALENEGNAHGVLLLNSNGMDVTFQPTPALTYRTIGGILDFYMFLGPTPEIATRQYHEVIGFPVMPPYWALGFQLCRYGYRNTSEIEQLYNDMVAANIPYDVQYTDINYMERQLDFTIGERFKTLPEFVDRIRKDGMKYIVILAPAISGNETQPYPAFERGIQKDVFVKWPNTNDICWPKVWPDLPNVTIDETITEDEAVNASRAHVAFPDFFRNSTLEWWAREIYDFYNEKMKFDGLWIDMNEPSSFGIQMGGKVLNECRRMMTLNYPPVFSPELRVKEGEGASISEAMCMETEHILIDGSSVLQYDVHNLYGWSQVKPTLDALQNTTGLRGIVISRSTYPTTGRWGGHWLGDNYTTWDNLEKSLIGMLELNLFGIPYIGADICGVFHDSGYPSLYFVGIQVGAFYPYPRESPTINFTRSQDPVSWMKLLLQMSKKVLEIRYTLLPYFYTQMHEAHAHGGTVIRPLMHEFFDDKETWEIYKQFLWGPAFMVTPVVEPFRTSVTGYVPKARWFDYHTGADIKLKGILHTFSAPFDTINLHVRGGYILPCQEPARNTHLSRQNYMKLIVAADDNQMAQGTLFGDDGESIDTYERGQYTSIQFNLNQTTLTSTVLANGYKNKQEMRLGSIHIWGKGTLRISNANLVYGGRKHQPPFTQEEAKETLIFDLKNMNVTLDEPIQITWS
T2 sequence (Q6P7A9 70-953): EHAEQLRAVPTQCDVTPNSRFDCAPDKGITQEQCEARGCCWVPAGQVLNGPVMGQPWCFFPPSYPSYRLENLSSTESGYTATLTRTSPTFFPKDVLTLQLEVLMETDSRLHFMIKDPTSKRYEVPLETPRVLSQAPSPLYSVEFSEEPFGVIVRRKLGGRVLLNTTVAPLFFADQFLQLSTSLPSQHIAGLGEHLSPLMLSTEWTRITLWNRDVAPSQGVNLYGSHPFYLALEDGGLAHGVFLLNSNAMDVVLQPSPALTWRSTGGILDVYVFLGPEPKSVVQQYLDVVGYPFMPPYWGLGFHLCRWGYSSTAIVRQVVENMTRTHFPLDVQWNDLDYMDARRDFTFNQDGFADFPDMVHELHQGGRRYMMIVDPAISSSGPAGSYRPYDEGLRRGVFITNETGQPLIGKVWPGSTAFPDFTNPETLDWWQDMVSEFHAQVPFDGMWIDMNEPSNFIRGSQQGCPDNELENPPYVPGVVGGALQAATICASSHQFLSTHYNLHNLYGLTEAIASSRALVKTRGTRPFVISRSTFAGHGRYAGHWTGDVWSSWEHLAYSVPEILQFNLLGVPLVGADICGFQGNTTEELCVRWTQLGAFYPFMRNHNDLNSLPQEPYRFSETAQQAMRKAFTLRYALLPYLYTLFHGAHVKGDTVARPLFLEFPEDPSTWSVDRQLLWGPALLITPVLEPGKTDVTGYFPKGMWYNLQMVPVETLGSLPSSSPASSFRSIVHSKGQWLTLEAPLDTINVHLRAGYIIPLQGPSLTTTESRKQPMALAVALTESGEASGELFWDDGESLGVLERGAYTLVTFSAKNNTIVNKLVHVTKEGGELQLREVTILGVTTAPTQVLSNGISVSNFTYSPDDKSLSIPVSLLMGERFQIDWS

Regarding `O=C(O[C@H]1[C@H](O)[C@H]2[C@@H](O)CCN2C[C@@H]1OC(=O)c1ccccc1)c1ccccc1` [6,7-Dibenzoate, [1S-(1α,6β,7α,8β,8aβ)]-octahydro-1,6,7,8-indolizinetetrol 6,7-dibenzoate], the IC50 on Intestinal Sucrase was 2 µM; at Lysosomal α-Glucosidase, greater than 1000 µM. For the same molecule, the minimal effective dose in the experiment with serum glucose elevation was 20 mg/kg.
As for `O=C(O[C@H]1[C@H](O)[C@H]2[C@@H](O)CCN2C[C@@H]1OC(=O)c1ccc(F)cc1)c1ccc(F)cc1` [6,7-bis(4-Fluorobenzoate), [1S-(1α,6β,7α,8β,8aβ)]-octahydro-1,6,7,8-indolizinetetrol 6,7-bis(4-fluorobenzoate)], the IC50 is 4 µM on Intestinal Sucrase and greater than 1000 µM on Lysosomal α-Glucosidase.
Take `CCCC(=O)O[C@H]1[C@H](O)[C@@H](OC(=O)CCC)CN2CC[C@H](O)[C@H]12` [6,8-Dibutyrate, [1S-(1α,6β,7α,8β,8aβ)]-octahydro-1,6,7,8-indolizinetetrol 6,8-dibutanoate]: the IC50 at Intestinal Sucrase was 0.2 µM; on Lysosomal α-Glucosidase it was greater than 1000 µM.
For `O=C(O[C@H]1CN2CC[C@H](O)[C@@H]2[C@@H](O)[C@@H]1O)c1ccc(F)cc1` [6-(4-Fluorobenzoate), [1S-(1α,6β,7α,8β,8aβ)]-octahydro-1,6,7,8-indolizinetetrol 6-(4-fluorobenzoate)], the IC50 on Intestinal Sucrase is 0.2 µM; on Lysosomal α-Glucosidase, 4 µM. Also, the minimal effective dose with serum glucose elevation came out at 5 mg/kg.
In the case of `COc1ccc(C(=O)O[C@H]2CN3CC[C@H](O)[C@@H]3[C@@H](O)[C@@H]2O)cc1` [6-(4-Methoxybenzoate), (1S-(1α,6β,7α,8β,8aβ)]-octahydro-1,6,7,8-indolizinetetrol 6-(4-methoxybenzoate)], the IC50 on Intestinal Sucrase worked out at 2 µM; on Lysosomal α-Glucosidase, 1000 µM.
Consider `Cc1ccc(C(=O)O[C@H]2CN3CC[C@H](O)[C@@H]3[C@@H](O)[C@@H]2O)cc1` [6-(4-Methylbenzoate), [1S-(1α,6β,7α,8β,8aβ)]-octahydro-1,6,7,8-indolizinetetrol 6-(4-methylbenzoate)], for which the IC50 at Intestinal Sucrase was 0.3 µM; at Lysosomal α-Glucosidase, 1000 µM.
Regarding `O=C(O[C@H]1CN2CC[C@H](O)[C@@H]2[C@@H](O)[C@@H]1O)c1ccccc1` [6-Benzoate, (1S-(1α,6β,7α,8β,8aβ)]-octahydro-1,6,7,8-indolizinetetrol 6-benzoate], the results for the IC50 on Intestinal Sucrase and at Lysosomal α-Glucosidase were 0.08 µM and 800 µM, respectively. Further, the minimal effective dose in the experiment on serum glucose elevation is 1 mg/kg. The “Duration Of Action” value in the experiment with serum glucose elevation came to 1 hour hours.
Take `O=C(O[C@H]1[C@H](O)[C@H]2[C@@H](O)CCN2C[C@@H]1O)c1ccc(Cl)cc1Cl` [7-(2,4-Dichlorobenzoate), [1S-(1α,6β,7α,8β,8aβ)]-octahydro-1,6,7,8-indolizinetetrol 7-(2,4-dichlorobenzoate)]: the results for the IC50 on Intestinal Sucrase and on Lysosomal α-Glucosidase were 0.4 µM and 100 µM, respectively. The minimal effective dose in the experiment on serum glucose elevation came out at 20 mg/kg.
Consider `O=C(O[C@H]1[C@H](O)[C@H]2[C@@H](O)CCN2C[C@@H]1O)c1ccc(F)cc1` [7-(4-Fluorobenzoate), [1S-(1α,6β,7α,8β,8aβ)]-octahydro-1,6,7,8-indolizinetetrol 7-(4-fluorobenzoate)], for which the IC50 at Intestinal Sucrase stood at 0.4 µM. The IC50 on Lysosomal α-Glucosidase stood at 6 µM. Further, in the experiment with serum glucose elevation, the minimal effective dose stood at 5 mg/kg and the “Duration Of Action” value was determined as 2 h.
As to `O=C(O[C@H]1[C@H](O)[C@H]2[C@@H](O)CCN2C[C@@H]1O)c1ccccc1` [7-Benzoate, [1S-(1α,6β,7α,8β,8aβ)]-octahydro-1,6,7,8-indolizinetetrol 7-benzoate], the IC50 at Intestinal Sucrase was 2 µM; on Lysosomal α-Glucosidase, 200 µM. Moreover, the minimal effective dose with serum glucose elevation is 5 mg/kg.
For the molecule `OC[C@H]1O[C@H](O[C@H]2[C@H](O)[C@@H](O)CN3CC[C@H](O)[C@H]23)[C@H](O)[C@@H](O)[C@@H]1O` [8-α-D-Glucopyranoside, 8-O-(α-D-glucopyranosyl)-[1S-(1α,6β,7α,8β,8aβ)]-octahydro-1,6,7,8-indolizinetetrol], the IC50 on Intestinal Sucrase was determined as 0.05 µM. The IC50 at Lysosomal α-Glucosidase was determined as 300 µM. In addition, in the experiment on serum glucose elevation, the minimal effective dose turned out to be 1 mg/kg and the “Duration Of Action” value was “≧3 hours”.

The values above are taken from patent EP0297534B1, “Castanospermine esters and glycosides” (MERRELL DOW PHARMACEUTICALS INC., priority 1987, dated 1989).
